Experimental data from ChEMBL document CHEMBL5518238, “Structure-Activity Relationship (SAR) Studies of Novel Monovalent AR/AR-V7 Dual Degraders with Potent Efficacy against Advanced Prostate Cancer” (J Med Chem, 2024).
Active and inactive are the calls of the source.

Legend:
[1] = test system: Androgen receptor (Homo sapiens), P10275 [UNDEFINED MUTATION]; assay: (§1) Induction of AR-V7 degradation in human 22Rv1 cells incubated for 24 hrs by Western blot analysis; assay type: cell-based; settings: dose 1-10 µM
Androgen receptor = Androgen receptor (Homo sapiens, UniProt P10275); assay: as §1; assay type: cell-based
[2] = target: T1, Androgen receptor (Homo sapiens) (UniProt P10275); assay: Induction of AR degradation in human LNCaP cells incubated for 24 hrs by Western blot analysis; assay type: cell-based; settings: dose <= 30.0 µM
T1 sequence (whole entry): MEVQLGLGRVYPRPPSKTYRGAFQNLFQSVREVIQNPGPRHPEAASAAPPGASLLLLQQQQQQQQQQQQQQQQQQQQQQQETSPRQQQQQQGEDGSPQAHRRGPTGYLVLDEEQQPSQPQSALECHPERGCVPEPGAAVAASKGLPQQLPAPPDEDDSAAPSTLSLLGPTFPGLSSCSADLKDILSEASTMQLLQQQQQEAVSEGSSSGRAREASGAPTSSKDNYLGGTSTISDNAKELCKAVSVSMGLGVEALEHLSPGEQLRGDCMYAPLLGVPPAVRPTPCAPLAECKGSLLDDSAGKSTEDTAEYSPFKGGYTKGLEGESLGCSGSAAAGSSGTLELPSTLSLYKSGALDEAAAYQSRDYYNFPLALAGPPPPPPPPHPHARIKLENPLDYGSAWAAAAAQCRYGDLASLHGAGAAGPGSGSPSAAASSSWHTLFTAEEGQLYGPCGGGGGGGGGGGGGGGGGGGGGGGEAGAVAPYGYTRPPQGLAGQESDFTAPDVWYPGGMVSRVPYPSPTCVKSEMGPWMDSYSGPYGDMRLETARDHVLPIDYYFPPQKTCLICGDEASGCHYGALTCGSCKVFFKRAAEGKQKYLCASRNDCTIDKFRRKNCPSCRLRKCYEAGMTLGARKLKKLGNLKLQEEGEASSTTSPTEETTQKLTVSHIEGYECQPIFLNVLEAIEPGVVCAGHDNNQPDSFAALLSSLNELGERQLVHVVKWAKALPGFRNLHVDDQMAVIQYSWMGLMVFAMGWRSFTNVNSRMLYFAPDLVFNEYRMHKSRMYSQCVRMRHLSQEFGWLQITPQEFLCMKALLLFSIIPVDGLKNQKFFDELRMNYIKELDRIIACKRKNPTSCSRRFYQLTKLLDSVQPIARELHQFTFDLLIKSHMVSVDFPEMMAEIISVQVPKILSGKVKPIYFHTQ

[3] = target: T1, Androgen receptor (Homo sapiens); assay: Induction of AR degradation in human LNCaP cells at 5 uM by Western blot analysis; assay type: cell-based; settings: time <= 24.0 hrs, TDE = time-dependent effect
[4] = test system: Androgen receptor (Homo sapiens), P10275 [UNDEFINED MUTATION]; assay: Induction of AR-V7 degradation in human 22Rv1 cells at 10 uM incubated for 24 hrs in presence of CHX by Western blot analysis; assay type: cell-based
[5] = test system: Androgen receptor (Homo sapiens), P10275 [UNDEFINED MUTATION]; assay: Induction of AR-V7 degradation in human 22Rv1 cells at 20 uM incubated for 24 hrs in presence of Bortezomib by Western blot analysis; assay type: cell-based
CWR22R [6] = assay: Effect on MR level in human 22Rv1 at 2.5 to 20 uM incubated for 24 hrs by Western blot analysis; assay type: functional, cell-based; settings: dose 2.5-20 µM
[7] = target: T1, Androgen receptor (Homo sapiens); assay: Induction of AR degradation in human 22Rv1 cells at 10 uM incubated for 24 hrs in presence of MDM2 by Western blot analysis; assay type: cell-based
[8] = test system: Androgen receptor (Homo sapiens), P10275 [UNDEFINED MUTATION]; assay: Induction of AR-V7 degradation in human 22Rv1 cells at 10 uM incubated for 24 hrs in presence of […] by Western blot analysis; assay type: cell-based
CWR22R [9] = assay: Drug localization in nucleus of human 22Rv1 cells at 5 uM incubated for 24 hrs by DAPI staining based immunofluorescence analysis; assay type: functional, cell-based
CWR22R [10] = assay: Downregulation of BARD1 mRNA expression in human 22Rv1 cells at 10 uM incubated for 24 hrs by qRT-PCR analysis; assay type: functional, cell-based
CWR22R [11] = assay: Downregulation of SLC26A2 mRNA expression in human 22Rv1 cells at 10 uM incubated for 24 hrs by qRT-PCR analysis; assay type: functional, cell-based
CWR22R [12] = assay: Downregulation of BCHE mRNA expression in human 22Rv1 cells at 10 uM incubated for 24 hrs by qRT-PCR analysis; assay type: functional, cell-based
CWR22R [13] = assay: Downregulation of KLK3 mRNA expression in human 22Rv1 cells at 10 uM incubated for 24 hrs by qRT-PCR analysis; assay type: functional, cell-based
CWR22R [14] = assay: Downregulation of PEG3 mRNA expression in human 22Rv1 cells at 10 uM incubated for 24 hrs by qRT-PCR analysis; assay type: functional, cell-based
CWR22R [15] = assay: Downregulation of ACSL3 mRNA expression in human 22Rv1 cells at 10 uM incubated for 24 hrs by qRT-PCR analysis; assay type: functional, cell-based
CWR22R [16] = assay: Downregulation of STEAP4 mRNA expression in human 22Rv1 cells at 10 uM incubated for 24 hrs by qRT-PCR analysis; assay type: functional, cell-based
CWR22R [17] = assay: Downregulation of […] mRNA expression in human 22Rv1 cells incubated for 24 hrs by qRT-PCR analysis; assay type: functional, cell-based; settings: dose 5-10 µM
CWR22R [18] = assay: Downregulation of KLK2 mRNA expression in human 22Rv1 cells incubated for 24 hrs by qRT-PCR analysis; assay type: functional, cell-based; settings: dose 5-10 µM
CWR22R [19] = assay: Downregulation of AR mRNA expression in human 22Rv1 cells at 5 to 10 uM incubated for 12 hrs by qRT-PCR analysis; assay type: functional, cell-based; settings: dose 5-10 µM
CWR22R [20] = assay: Induction of apoptosis in human 22Rv1 cells at 5 uM incubated for 24 hrs by Annexin V-FITC/PI staining based flow cytometric analysis (reference value: 3.70 %); assay type: functional
CWR22R [21] = assay: Induction of apoptosis in human 22Rv1 cells at 10 uM incubated for 24 hrs by Annexin V-FITC/PI staining based flow cytometric analysis (reference value: 3.70 %); assay type: functional
[22] = Half life in Sprague-Dawley rat at 50 mg/kg, po by LC-MS/MS analysis; assay type: ADME, organism-based; settings: in vivo
[23] = Volume of distribution at steady state in Sprague-Dawley rat at 5 mg/kg, iv by LC-MS/MS analysis; assay type: ADME, organism-based; settings: in vivo
[24] = AUC (0 to t) in Sprague-Dawley rat at 5 mg/kg, iv by LC-MS/MS analysis; assay type: ADME, organism-based; settings: in vivo
[25] = MRT (0 to t) in Sprague-Dawley rat at 50 mg/kg, po by LC-MS/MS analysis; assay type: ADME, organism-based; settings: in vivo
[26] = MRT (0 to infinity) in Sprague-Dawley rat at 50 mg/kg, po by LC-MS/MS analysis; assay type: ADME, organism-based; settings: in vivo
[27] = Toxicity in NSG mouse xenografted with human 22Rv1 cells assessed as heart damage t at 30 mg/kg, IG administered once daily for 21 days by H and E staining based analysis; assay type: organism-based, CWR22R; settings: in vivo, po, 504 h, time 21 day
[28] = Toxicity in NSG mouse xenografted with human 22Rv1 cells assessed as spleen damage t at 30 mg/kg, IG administered once daily for 21 days by H and E staining based analysis; assay type: organism-based, CWR22R; settings: in vivo, po, 504 h, time 21 day
[29] = Toxicity in NSG mouse xenografted with human 22Rv1 cells assessed as kidney damage t at 30 mg/kg, IG administered once daily for 21 days by H and E staining based analysis; assay type: organism-based, CWR22R; settings: in vivo, po, 504 h, time 21 day

CC1(C)C(=O)N(c2ccc(C#N)c(C(F)(F)F)c2)C(=O)N1CCNc1ccc(F)c2ncccc12
Non-Toxic: Activity [27] | Activity [28] | Activity [29]
30.91%: Activity (CWR22R [21])
18.81%: Activity (CWR22R [20])
4.1 h: MRT inf [26]
2.2 h: half-life [22]
2640 nM: DC50 (Androgen receptor)
2.5 L/kg: Vdss [23]
2870 ng·h/mL: AUC(0-t) [24]
active: Activity [1] Dose-Dependent Effect | Activity [2] Dose-Dependent Effect | Activity [3] Tde | Activity [4] | Activity [5] | Activity (CWR22R [6]) | Activity [7] | Activity [8] | Activity (CWR22R [9]) | Activity (CWR22R [10]) | Activity (CWR22R [11]) | Activity (CWR22R [12]) | Activity (CWR22R [13]) | Activity (CWR22R [14]) | Activity (CWR22R [15]) | Activity (CWR22R [16]) | Activity (CWR22R [17]) Dose-Dependent Effect | Activity (CWR22R [18]) Dose-Dependent Effect | Activity (CWR22R [19])
3.2 h: MRT last [25]
